One series in a line: in vitro. Particulars: human. As for the experimental part:
(§1) All of the cultures were maintained at 37 °C in a humidified atmosphere containing 5% of CO2. Toxicity assays were performed, as previously described, with some modifications. In brief, trypanosomes and HL-60 cells were seeded at an initial cell density of 10^4/mL and 5 × 10^4/mL, respectively, in 96-well plates in a final volume of 200 μL culture medium containing various concentrations of test compounds dissolved in 100% DMSO. […] The controls contained DMSO alone. In all of the experiments, the final DMSO concentration was 0.9%. After 24 h incubation, 20 µL of a 0.5 mM resazurin solution prepared in PBS was added and the cultures were incubated for a further 48 h. Resazurin is a vital dye that, when being reduced by living cells, changes its colour from blue to pink. Thus, by measuring absorbance, the proliferation of cells can be easily determined. The change in absorbance was read with a microplate reader using a test wavelength of 570 nm and a reference wavelength of 630 nm. GI50 values were calculated by linear interpolation according to the method described by Huber and Koella. MIC values were determined microscopically.

Series [1] has as its system human myeloid leukemia HL-60 cells. The series can be described thus: in vitro. Particulars: human, 72 h. As for the experimental part:
as §1

Series [2] relates to bloodstream forms of T. brucei clone 427-221a. Briefly: Trypanocidal assay, resazurin viability assay. The format is cell-based, Trypanosoma brucei. As for the experimental part: as §1
A general note: Alamar Blue is a resazurin reagent that responds to reducing activity.

In series [3] the test system is S. epidermidis ATCC 12228. The series can be described thus: Antibacterial liquid microdilution (CLSI M07-A8). The format is cell-based, Staphylococcus epidermidis. As for the experimental part:
(§2) Organometallic compounds play an increasingly important role in the search for new antibacterial agents. We, therefore, thought to investigate also the bactericidal activity of the newly synthesized cymantrenes 1–7, compound C and CymH. The antibacterial activity of the compounds was tested against Gram-positive methicillin-sensitive Staphylococcus aureus (MSSA), methicillin-resistant S. aureus (MRSA), vancomycin-intermediate S. aureus (VISA), S. epidermidis, and Gram-negative Escherichia coli bacterial strains, and expressed as minimal inhibitory concentration (MIC) values (Table 3).
(§3) The antibacterial activity of CymH, 1–7 and C and the reference drugs penicillin G and polymyxin B was tested by the liquid microdilution method under standard conditions using twofold dilution series, as described in the Clinical and Laboratory Standards Institute (CLSI), reference method M07-A8, and expressed as minimal inhibitory concentration (MIC) values. A panel of Gram-positive bacterial strains, S. aureus ATCC® 29213 (sensitive to methicillin, (MSSA)), S. aureus ATCC® 43300 (resistant to methicillin, (MRSA)), S. aureus ATCC 700787™ (intermediate to vancomycin, (VISA)), and S. epidermidis ATCC 12228™, and one Gram-negative, strain E. coli ATCC BAA-198™ (ESBL) were used. In addition, four clinical isolates of S. aureus (MSSA and MRSA) and two clinical isolates of S. epidermidis that were collected from different patients at the Medical University of Warsaw, Poland, were also tested. The bacterial cells were cultivated on tryptic soy agar (TSA) and nutrient agar (NA), according to ATCC recommendations. All of the strains were incubated at 37 °C. Tested compounds were dissolved in DMSO and then serially diluted twofold with cation-adjusted Mueller-Hinton broth (CAMHB). Then, 95 µL of the dilutions were dispensed into microdilution sterile plates (Mar-Four), followed by the addition of 5 µL of bacteria inoculum containing 5 × 10^4 CFU/mL. The final concentrations of the compounds ranged from 512 to 2 µg/mL. Each compound was tested in triplicate, and Penicillin G (8–0.15 µg/mL) and Polymyxin B (256–0.0625 µg/mL) were used as controls. The plates were incubated at 37 °C for 18 to 24 h depending on the bacterial strain. Thereafter, the absorbance was measured at λ = 540 nm and λ = 595 nm using a Spectrostar Omega microplate reader (BMG Labtech, Offenburg, Germany). The MIC value was defined as the lowest concentration of a compound that reduced the growth by 100%.

The subject of series [4] is S. aureus ATCC 43300 (MRSA). The series can be described thus: Antibacterial liquid microdilution (CLSI M07-A8). As to conditions: 18 to 24 h. Format: cell-based, Staphylococcus aureus. As for the experimental part:
as §2, §3
(In broth dilution the organism is exposed to a series of concentrations in liquid medium.)

Series [5] has as its system S. aureus ATCC 700787 (VISA). Briefly: Antibacterial liquid microdilution (CLSI M07-A8). The format is cell-based, Staphylococcus aureus. As to conditions: 18 to 24 h. As for the experimental part: as §2, §3
The test system of series [6] is S. aureus ATCC 29213 (MSSA). The series can be described thus: Antibacterial liquid microdilution (CLSI M07-A8). Format: cell-based, Staphylococcus aureus. As to conditions: 18 to 24 h. As for the experimental part:
as §2, §3

Series [7] relates to Clinical S. epidermidis (MSSA) 43/12. Briefly: Antibacterial liquid microdilution, clinical isolate. The format is cell-based, Staphylococcus epidermidis. As for the experimental part: (§4) This lack of activity against E. coli can be probably explained by an impeded cellular uptake of the compounds through the Gram-negative cell wall that consists of two layers and effective protein efflux pump systems. The antibacterial activities of 1 and C were further tested against four clinical isolates of S. aureus and two clinical isolates of S. epidermidis (Table 4).
as §3

Series [8] concerns Clinical S. epidermidis (MSSA) 37/12. The series is described as above. Format: cell-based, Staphylococcus epidermidis. As for the experimental part:
as §4, §3

Series [9] has as its system Clinical S. aureus (MRSA) 31/12. The description is as above. The format is cell-based, Staphylococcus aureus. As for the experimental part: as §4, §3
For series [10], the system named is Clinical S. aureus (MSSA) 30/11. Described as above. Format: cell-based, Staphylococcus aureus. As for the experimental part:
as §4, §3

For series [11], the system named is Clinical S. aureus (MRSA) 44/12. The series is described as above. Format: cell-based, Staphylococcus aureus. As for the experimental part: as §4, §3
Series [12] concerns Clinical S. aureus (MSSA) 26/11. The series is described as above. The format is cell-based, Staphylococcus aureus. As for the experimental part: as §4, §3
Series [13] has as its system E. coli ATCC BAA-198 (ESBL). The series can be described thus: Antibacterial liquid microdilution (CLSI M07-A8). Format: cell-based, Escherichia coli. As for the experimental part: as §2, §3

Converted amounts (≈) assume the structure as drawn.

On to `Cc1ccc(C(=O)Nc2ccc(S(=O)(=O)O)c3cc(S(=O)(=O)O)cc(S(=O)(=O)O)c23)cc1NC(=O)c1cccc(NC(=O)Nc2cccc(C(=O)Nc3cc(C(=O)Nc4ccc(S(=O)(=O)O)c5cc(S(=O)(=O)O)cc(S(=O)(=O)O)c45)ccc3C)c2)c1` [Suramin, suramin, reference compound], for which the GI50 (commonly the concentration at which growth is held to half of that of the control) at 72 h in the series “in vitro” is more than 100000 nM. The “HL-60 MIC” value in series [1] was more than 100 µM. Moreover, it took 39 ± 3 nM to inhibit growth in [2] (Trypanosoma brucei, 50% growth inhibition) by half (GI50). The compound further registered an MIC in series [2] (Trypanosoma brucei, concentration at which all cells were killed, determined microscopically) of 0.1 to 1 µM (≈ 0.13 to 1.3 µg/mL). Moreover, in [2] (ratio of cytotoxic (HL-60) to trypanocidal (T. brucei) activity), the “Selectivity GI50 Ratio” value is more than 2564.

As to `CC1(C)S[C@@H]2[C@H](NC(=O)Cc3ccccc3)C(=O)N2[C@H]1C(=O)O` [penicillin G, reference compound], the MIC in [3] (Staphylococcus epidermidis, ATCC12228, 18 to 24 h) is 2 µg/mL (≈ 5.98 µM); in [4] (Staphylococcus aureus), 16 µg/mL (≈ 47.8 µM); in series [5] (Staphylococcus aureus), 32 µg/mL (≈ 95.7 µM); in series [6] (Staphylococcus aureus), 2 µg/mL (≈ 5.98 µM); in series [7] (Staphylococcus epidermidis, MSSA) it was 8 µg/mL (≈ 23.9 µM); in series [8] (Staphylococcus epidermidis, MSSA, read-out: MIC, Clinical S. epidermidis 37/12), 16 µg/mL (≈ 47.8 µM). For the same compound, the MIC in [9] (Staphylococcus aureus, MRSA) is 32 µg/mL (≈ 95.7 µM); in [10] (Staphylococcus aureus, MSSA) it was 2 µg/mL (≈ 5.98 µM); in series [11] (Staphylococcus aureus, MRSA) it was 8 µg/mL (≈ 23.9 µM); in series [12] (Staphylococcus aureus, MSSA), 0.5 µg/mL (≈ 1.5 µM); in series [13] (Escherichia coli, ATCCBAA198, 18 to 24 h), more than 256 µg/mL.

Regarding polymyxin B [reference compound], the “MIC, S. epidermidis ATCC 12228” value in series [3] (18 to 24 h) is 64 µg/mL. Moreover, the “MIC, S. aureus ATCC 43300 (MRSA)” value in series [4] was determined as 256 µg/mL. In series [5], the “MIC, S. aureus ATCC 700787 (VISA)” value is more than 256 µg/mL. In addition, in series [6], the “MIC, S. aureus ATCC 29213 (MSSA)” value stood at 256 µg/mL. The “MIC, Clinical S. epidermidis (MSSA) 43/12” value in series [7] is 64 µg/mL. In [8], the “MIC, Clinical S. epidermidis (MSSA) 37/12” value is 128 µg/mL. Further, the “MIC, Clinical S. aureus (MRSA) 31/12” value in series [9] came out at 256 µg/mL. In addition, in [10], the “MIC, Clinical S. aureus (MSSA) 30/11” value stood at 256 µg/mL. For the same compound, the “MIC, Clinical S. aureus (MRSA) 44/12” value in [11] amounted to 256 µg/mL. Moreover, the “MIC, Clinical S. aureus (MSSA) 26/11” value in series [12] came out at 256 µg/mL. Further, the “MIC, E. coli ATCC BAA-198” value in series [13] (18 to 24 h) was found to be 0.125 µg/mL.

Source of the values: publication PMC6149849, “Cymantrenyl-Nucleobases: Synthesis, Anticancer, Antitrypanosomal and Antimicrobial Activity Studies” (Molecules : A Journal of Synthetic Chemistry and Natural …, 2017).
